pIC50: −log10 of the molar value. Where two headings read alike, the source gives them in different places.
Tests used:
Format in all cases: cell-based
[1] = test system: LPS-stimulated heparinized whole human blood; assay: Release of IL1β, TNFα and IL6 in LPS-stimulated heparinized whole human blood; conditions: 24 h
Procedure: In another assay, heparinized whole human blood was preincubated for 1 h with different concentrations of the compounds and then stimulated with LPS for 24 h. Commercially available test kits were used to measure the release of IL1β, TNFα and IL6 in the supernatant after 24 h, and the IC50 for the given compound was determined.

[2] = test system: LPS-stimulated human peripheral blood lymphocytes; assay: Cytokine release in LPS-stimulated human peripheral blood lymphocytes (ELISA); conditions: Lymphocyte
Procedure: (§1) The pyrazoloisoquinoline derivatives according to the invention were tested for inhibitory activity against NIK in various in vitro assay systems. In this connection, human peripheral blood lymphocytes were preincubated for 1 h with different concentrations of the compounds and then stimulated for 24 h with LPS or IL1 β. After that, a commercially obtainable ELISA test kit was used to measure the release of TNFα in the culture supernatant, and the IC50 for the given compound was determined. The cytotoxicity was measured by way of LDH release using a commercially obtainable test kit and the LD50 for the given compound was determined.

[3] = test system: IL1 β-stimulated human peripheral blood lymphocytes; assay: Cytokine release in IL1β-stimulated human peripheral blood lymphocytes (ELISA); conditions: Lymphocyte
Procedure: as §1, with “After that, a commercially obtainable ELISA test kit was used to measure the release of TNFα in the culture supernatant, and the IC50 for the given compound was determined.” left out

[4] = test system: human peripheral blood lymphocytes; assay: Cytotoxicity by LDH release
Procedure: as §1

[5] = 1 h preincubation, 24 h stimulation, read-out: TNFα release IC50
[6] = IL1 β-stimulated human peripheral blood lymphocytes (Table 2)
[7] = LPS-stimulated human peripheral blood lymphocytes (Table 1)

SMILES	pIC50 ([1]; read-out: IL1β release IC50)	pIC50 ([1]; read-out: IL6 release IC50)	pIC50 ([1]; read-out: TNFα release IC50)	pIC50 [2, 5]	pIC50 ([2]; read-out: IL6 release IC50)	pIC50 [3, 5]	pIC50 ([3]; read-out: IL6 release IC50)	Cytotoxicity LD50 [4, 6]	Cytotoxicity LD50 [4, 7]
c1ccc(-c2nc3c(-c4ccccc4)n[nH]c3c3ccccc23)cc1 [Example 1, 3,5-Diphenyl-1H-pyrazolo[4,3-c]isoquinoline]	4.48	< 4.00	4.90	5.72	4.10	5.30	4.10	>100 µM	> 100 µM
COc1cccc(-c2nc3c(C)n[nH]c3c3ccccc23)c1 [Example 2, 5-(3-Methoxyphenyl)-3-methyl-1H-pyrazolo[4,3-c]isoquinoline]	5.89	5.15	5.92	5.05	< 4.00	4.46	< 4.00	> 100 µM	> 100 µM
Cc1n[nH]c2c1nc(-c1cccc(O)c1)c1ccccc12 [Example 3, 3-(3-Methyl-1H-pyrazolo[4,3-c]isoquinolin-5-yl)phenol]	4.54	< 4.00	5.30	5.12	4.10	5.10	< 4.00	> 100 µM	> 100 µM
